From patent publication US20230414794A1, “PSMA INHIBITOR, COMPOUND AND APPLICATION” (PEKING UNIVERSITY FIRST HOSPITAL, priority 2019, published 2023)

Legend:
PSMA = PSMA (Homo sapiens (Human), UniProt Q04609); test: PSMA inhibitory activity (NAAG hydrolysis by LNCaP cell lysate, Amplex Red glutamate detection); format: biochemical; settings: for Ki / inhibition at 6.667 µM: LNCaP cell lysate; for Ki: NAAG substrate, Ki by Cheng-Prusoff equation; for inhibition at 6.667 µM: inhibitor 6667 nM, read-out: % inhibited at 6667 nM
Description: A LNCaP cell lysate (total protein concentration: 125 μg/mL) was prepared in advance. 25 μL of the cell lysate, 25 μL of the inhibitor and 25 μL of N-acetylaspartylglutamate (NAAG, 16 μM) were incubated together in a 96-well plate (Costar Assay Plate, Cat#. 3925) at 37° C. for 180 min. The amount of glutamate released by hydrolysis of NAAG was measured using an Amplex Red Glutamic Acid Kit (Molecular Probes Inc., Eugene, OR) working solution (50 μL) after incubation for 30 min Fluorescence were measured using Synergy H1 Hybrid Reader (BioTek Instruments, Inc., Winooski, Vermont) at excitation wavelength of 530 nm and emission wavelength of 590 nm. An inhibition curve was plotted by a semi-logarithmic method. […] The inhibition constant (Ki) of the enzyme was calculated by the Cheng-Prusof equation. Each experiment was performed in triplicates. Data analysis was performed by GraphPad Prism 7.0 (GraphPad Software, San Diego, California).

PSMA (LNCaP cells) = PSMA (LNCaP cells) (Homo sapiens (Human), UniProt Q04609); test: Fluorescence microscopy imaging of LNCaP cells stained with Compound S1, with or without Compound S2; format: cell-based; settings: room temperature
Description: LNCaP cells were diluted to 1×10^6/mL with RPMI-1640 (containing 10% FBS). For staining, the cells and 2 μM Compound S1 were incubated at room temperature for 1 h. For the inhibition group, the cells were incubated with 2 μM Compound S1 and 200 μM Compound S2 together for 1 h at room temperature. After the staining was completed, excess dye compound was removed by centrifugation, and the cells were resuspended in cold PBS and blown well, 100 μL of which was taken and added to a 96-well plate, left for several minutes and then observed under a fluorescence microscope.

[1] = target: PSMA (LNCaP cells with high PSMA expression) (Homo sapiens (Human), UniProt Q04609); test: Flow cytometric analysis: inhibition of YC-36 staining of LNCaP cells; format: cell-based; settings: 2 μM YC-36 plus 200 μM Compound S2 (100×), 1 h, room temperature, flow cytometry
Description: LNCaP cells were diluted to 1×10^6/mL with RPMI-1640 (containing 10% FBS). For staining, the cells and 2 μM YC-36 were incubated at room temperature for 1 h, and then washed twice with the same medium. The cells were resuspended in cold PBS. For the inhibition group, the cells were incubated with 2 μM YC-36 and 200 μM Compound S2 for 1 hour at room temperature. The cells were analyzed by BD Influs Cell Sorter (BD Biosciences, San Jose, CA95131, USA) flow cytometry and the FlowJo software, and the results are shown in FIG. 6. The black area (left in Panel A) represents the LNCaP cells without dye, and the blue area (right in Panel A) represents the LNCaP cells after co-incubation with YC-36.
YC-36 is a fluorescent molecule having a high affinity for PSMA, and can selectively stain cells with high PSMA expression (Kiess, A.P., et al., Auger Radiopharmaceutical Therapy Targeting Prostate […]. J Nucl Med, 2015. 56(9): p. 1401-1407).

Sequence of PSMA (Q04609 whole entry): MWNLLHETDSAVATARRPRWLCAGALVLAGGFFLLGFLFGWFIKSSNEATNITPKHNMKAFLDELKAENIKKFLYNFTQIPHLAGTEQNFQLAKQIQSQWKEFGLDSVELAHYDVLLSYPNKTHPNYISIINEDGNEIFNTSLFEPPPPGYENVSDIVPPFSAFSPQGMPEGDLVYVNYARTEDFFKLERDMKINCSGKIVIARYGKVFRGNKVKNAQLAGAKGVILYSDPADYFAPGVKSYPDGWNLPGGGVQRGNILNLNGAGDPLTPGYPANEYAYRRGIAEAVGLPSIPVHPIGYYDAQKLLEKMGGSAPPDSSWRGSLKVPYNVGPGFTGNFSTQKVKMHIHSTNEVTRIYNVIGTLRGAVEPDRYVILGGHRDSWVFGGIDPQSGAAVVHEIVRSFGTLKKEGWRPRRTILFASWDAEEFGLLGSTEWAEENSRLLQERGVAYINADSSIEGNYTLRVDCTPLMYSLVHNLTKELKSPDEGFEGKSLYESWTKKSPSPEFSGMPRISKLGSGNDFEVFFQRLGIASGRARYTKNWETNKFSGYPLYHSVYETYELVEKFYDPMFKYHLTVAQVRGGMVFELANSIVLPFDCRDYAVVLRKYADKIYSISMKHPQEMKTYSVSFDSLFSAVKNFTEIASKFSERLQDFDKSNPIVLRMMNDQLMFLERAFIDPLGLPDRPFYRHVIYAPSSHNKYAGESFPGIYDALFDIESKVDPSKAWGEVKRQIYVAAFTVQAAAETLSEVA
Sequence of PSMA (LNCaP cells) (Q04609 whole entry): as above
Sequence of PSMA (LNCaP cells with high PSMA expression) (Q04609 whole entry): as above

SMILES	Ki (PSMA) [nM]	inhibition at 6.667 µM (PSMA) [%]	affinity relative to ZJ-43 (PSMA; fold higher affinity than ZJ-43, from Ki in Table 1) [times]	inhibition of staining of LNCaP cells by YC-36 [1]	inhibition of staining of LNCaP cells by the blue dye Compound S1 (PSMA (LNCaP cells); 2 μM Compound S1 plus 200 μM Compound S2 (100×), 1 h)	staining of LNCaP cells (PSMA (LNCaP cells); 2 μM Compound S1, 1 h)
CC(C)C[C@H](NC(=O)N[C@@H](CNC(=O)c1ncc[nH]1)C(=O)O)C(=O)O [Comparative Compound DS1, (S)-2-(3-((S)-1-carboxy-2-(1H-imidazole-2-carboxamido)ethyl)ureido)-4-methylpentanoic acid]	> 1000	10.7	–	–	–	–
CC(C)C[C@H](NC(=O)N[C@@H](CNC(=O)c1c[nH]cn1)C(=O)O)C(=O)O [Comparative Compound DS2, (S)-2-(3-((S)-1-carboxy-2-(1H-imidazole-4-carboxamido)ethyl)ureido)-4-methylpentanoic acid]	> 1000	20.6	–	–	–	–
CC(C)C[C@H](NC(=O)N[C@@H](CNC(=O)c1c[nH]nn1)C(=O)O)C(=O)O [Comparative Compound DS3, (S)-2-(3-((S)-1-carboxy-2-(1H-1,2,3-triazole-4-carboxamido)ethyl)ureido)-4-methylpentanoic acid]	> 1000	47.3	–	–	–	–
CC(C)C[C@H](NC(=O)N[C@@H](CNC(=O)C(=O)O)C(=O)O)C(=O)O [Compound S3, (S)-2-(3-((S)-1-carboxy-2-(carboxyformamido)ethyl)ureido)-4-methylpentanoic acid]	5.69	–	–	–	–	–

The next lines start with results.

Ki (PSMA) [nM]	inhibition at 6.667 µM (PSMA) [%]	affinity relative to ZJ-43 (PSMA; fold higher affinity than ZJ-43, from Ki in Table 1) [times]	inhibition of staining of LNCaP cells by YC-36 [1]	inhibition of staining of LNCaP cells by the blue dye Compound S1 (PSMA (LNCaP cells); 2 μM Compound S1 plus 200 μM Compound S2 (100×), 1 h)	SMILES	staining of LNCaP cells (PSMA (LNCaP cells); 2 μM Compound S1, 1 h)
5.96	–	–	–	–	Nc1ccc2c(CC(=O)NCCCC[C@H](NC(=O)N[C@@H](CNC(=O)C(=O)O)C(=O)O)C(=O)O)cc(=O)oc2c1 [Compound S1, (45,85)-15-(7-amino-2-oxo-2H-chromen-4-yl)-1,6,14-trioxo-2,5,7,13-tetraazapentadecane-1,4,8-tricarboxylic acid]	stained the cells by specific binding to PSMA
0.08	–	44	significantly inhibited	significantly inhibit	O=C(N[C@@H](CCCCNC(=O)c1ccc(I)cc1)C(=O)O)N[C@@H](CNC(=O)C(=O)O)C(=O)O [Compound S2, (45,85)-14-(4-iodophenyl)-1,6,14-trioxo-2,5,7,13-tetraazatetradecane-1,4,8-tric arboxylic acid]	–
